Values quoted from earlier work as cited in article PMC8513935.

assay: experimental, compiled by the authors from the literature (the ESI cites the sources); settings: 1,2-Dichloroethane, 25 C

| Structure (SMILES) | log K of transfer, gas to solvent [log10 K] |
| --- | --- |
| CCC(C)=O | 3.64 |

same assay, conditions: 2-Methylpropan-1-ol, 25 C

| Structure (SMILES) | log K of transfer, gas to solvent [log10 K] |
| --- | --- |
| CCC(C)=O | 2.99 |

same assay, conditions: 2-Methylpropan-2-ol, 25 C

| Structure (SMILES) | log K of transfer, gas to solvent [log10 K] |
| --- | --- |
| CCC(C)=O | 3.11 |

same assay, conditions: 3-Methylbutan-1-ol, 25 C

| Structure (SMILES) | log K of transfer, gas to solvent [log10 K] |
| --- | --- |
| CCC(C)=O | 3.01 |

same assay, conditions: Acetonitrile, 25 C

| Structure (SMILES) | log K of transfer, gas to solvent [log10 K] |
| --- | --- |
| CCC(C)=O | 3.48 |

same assay, conditions: Benzene, 25 C

| Structure (SMILES) | log K of transfer, gas to solvent [log10 K] |
| --- | --- |
| CCC(C)=O | 3.27 |

same assay, conditions: Butan-1-ol, 25 C

| Structure (SMILES) | log K of transfer, gas to solvent [log10 K] |
| --- | --- |
| CCC(C)=O | 3.02 |

same assay, conditions: Butan-2-ol, 25 C

| Structure (SMILES) | log K of transfer, gas to solvent [log10 K] |
| --- | --- |
| CCC(C)=O | 3.05 |

same assay, conditions: Butanone, 25 C

| Structure (SMILES) | log K of transfer, gas to solvent [log10 K] |
| --- | --- |
| CCC(C)=O | 3.36 |

same assay, conditions: Butyronitrile, 25 C

| Structure (SMILES) | log K of transfer, gas to solvent [log10 K] |
| --- | --- |
| CCC(C)=O | 3.38 |

same assay, conditions: CCl4, 25 C

| Structure (SMILES) | log K of transfer, gas to solvent [log10 K] |
| --- | --- |
| CCC(C)=O | 2.99 |

same assay, conditions: Chlorobenzene, 25 C

| Structure (SMILES) | log K of transfer, gas to solvent [log10 K] |
| --- | --- |
| CCC(C)=O | 3.29 |

same assay, conditions: Chloroform, 25 C

| Structure (SMILES) | log K of transfer, gas to solvent [log10 K] |
| --- | --- |
| CCC(C)=O | 3.87 |

same assay, conditions: Cyclohexane, 25 C

| Structure (SMILES) | log K of transfer, gas to solvent [log10 K] |
| --- | --- |
| CCC(C)=O | 2.47 |

same assay, conditions: Cyclohexanone, 25 C

| Structure (SMILES) | log K of transfer, gas to solvent [log10 K] |
| --- | --- |
| CCC(C)=O | 3.29 |

same assay, conditions: Di-n-butyl ether, 25 C

| Structure (SMILES) | log K of transfer, gas to solvent [log10 K] |
| --- | --- |
| CCC(C)=O | 2.73 |

same assay, conditions: Dichloromethane, 25 C

| Structure (SMILES) | log K of transfer, gas to solvent [log10 K] |
| --- | --- |
| CCC(C)=O | 3.86 |

same assay, conditions: Diethyl Ether, 25 C

| Structure (SMILES) | log K of transfer, gas to solvent [log10 K] |
| --- | --- |
| CCC(C)=O | 3.03 |

same assay, conditions: Ethanol, 25 C

| Structure (SMILES) | log K of transfer, gas to solvent [log10 K] |
| --- | --- |
| CCC(C)=O | 3.16 |

same assay, conditions: Hexadecane, 25 C

| Structure (SMILES) | log K of transfer, gas to solvent [log10 K] |
| --- | --- |
| CCC(C)=O | 2.29 |

same assay, conditions: Hexan-1-ol, 25 C

| Structure (SMILES) | log K of transfer, gas to solvent [log10 K] |
| --- | --- |
| CCC(C)=O | 2.84 |

same assay, conditions: Hexane, 25 C

| Structure (SMILES) | log K of transfer, gas to solvent [log10 K] |
| --- | --- |
| CCC(C)=O | 2.49 |

same assay, conditions: Methanol, 25 C

| Structure (SMILES) | log K of transfer, gas to solvent [log10 K] |
| --- | --- |
| CCC(C)=O | 3.34 |

same assay, conditions: Octan-1-ol, 25 C

| Structure (SMILES) | log K of transfer, gas to solvent [log10 K] |
| --- | --- |
| CCC(C)=O | 2.77 |

same assay, conditions: Pentan-1-ol, 25 C

| Structure (SMILES) | log K of transfer, gas to solvent [log10 K] |
| --- | --- |
| CCC(C)=O | 2.85 |

same assay, conditions: Perfluoroalkane, 25 C

| Structure (SMILES) | log K of transfer, gas to solvent [log10 K] |
| --- | --- |
| CCC(C)=O | 1.76 |

same assay, conditions: Propan-1-ol, 25 C

| Structure (SMILES) | log K of transfer, gas to solvent [log10 K] |
| --- | --- |
| CCC(C)=O | 3.07 |

same assay, conditions: Propan-2-ol, 25 C

| Structure (SMILES) | log K of transfer, gas to solvent [log10 K] |
| --- | --- |
| CCC(C)=O | 2.99 |

same assay, conditions: Propanone, 25 C

| Structure (SMILES) | log K of transfer, gas to solvent [log10 K] |
| --- | --- |
| CCC(C)=O | 3.42 |

same assay, conditions: Tetrahydrofuran, 25 C

| Structure (SMILES) | log K of transfer, gas to solvent [log10 K] |
| --- | --- |
| CCC(C)=O | 3.33 |

same assay, conditions: Toluene, 25 C

| Structure (SMILES) | log K of transfer, gas to solvent [log10 K] |
| --- | --- |
| CCC(C)=O | 3.13 |

same assay, conditions: Water, 25 C

| Structure (SMILES) | log K of transfer, gas to solvent [log10 K] |
| --- | --- |
| CCC(C)=O | 2.72 |

assay: derived by the authors as gas->solvent minus gas->water (a hypothetical dry solvent; the ESI), not a two-phase measurement; settings: 1,2-Dichloroethane, 25 C

| Structure (SMILES) | log K of transfer, water to solvent [log10 K] |
| --- | --- |
| CCC(C)=O | 0.92 |

same assay, conditions: 2-Methylpropan-1-ol, 25 C

| Structure (SMILES) | log K of transfer, water to solvent [log10 K] |
| --- | --- |
| CCC(C)=O | 0.27 |

same assay, conditions: 2-Methylpropan-2-ol, 25 C

| Structure (SMILES) | log K of transfer, water to solvent [log10 K] |
| --- | --- |
| CCC(C)=O | 0.39 |

same assay, conditions: 3-Methylbutan-1-ol, 25 C

| Structure (SMILES) | log K of transfer, water to solvent [log10 K] |
| --- | --- |
| CCC(C)=O | 0.29 |

same assay, conditions: Acetone, 25 C

| Structure (SMILES) | log K of transfer, water to solvent [log10 K] |
| --- | --- |
| CCC(C)=O | 0.7 |

same assay, conditions: Acetonitrile, 25 C

| Structure (SMILES) | log K of transfer, water to solvent [log10 K] |
| --- | --- |
| CCC(C)=O | 0.76 |

same assay, conditions: Benzene, 25 C

| Structure (SMILES) | log K of transfer, water to solvent [log10 K] |
| --- | --- |
| CCC(C)=O | 0.55 |

same assay, conditions: Butan-1-ol, 25 C

| Structure (SMILES) | log K of transfer, water to solvent [log10 K] |
| --- | --- |
| CCC(C)=O | 0.3 |

same assay, conditions: Butan-2-ol, 25 C

| Structure (SMILES) | log K of transfer, water to solvent [log10 K] |
| --- | --- |
| CCC(C)=O | 0.33 |

same assay, conditions: Butanone, 25 C

| Structure (SMILES) | log K of transfer, water to solvent [log10 K] |
| --- | --- |
| CCC(C)=O | 0.64 |

same assay, conditions: Butyronitrile, 25 C

| Structure (SMILES) | log K of transfer, water to solvent [log10 K] |
| --- | --- |
| CCC(C)=O | 0.66 |

same assay, conditions: CCl4, 25 C

| Structure (SMILES) | log K of transfer, water to solvent [log10 K] |
| --- | --- |
| CCC(C)=O | 0.27 |

same assay, conditions: Chlorobenzene, 25 C

| Structure (SMILES) | log K of transfer, water to solvent [log10 K] |
| --- | --- |
| CCC(C)=O | 0.57 |

same assay, conditions: Chloroform, 25 C

| Structure (SMILES) | log K of transfer, water to solvent [log10 K] |
| --- | --- |
| CCC(C)=O | 1.15 |

same assay, conditions: Cyclohexane, 25 C

| Structure (SMILES) | log K of transfer, water to solvent [log10 K] |
| --- | --- |
| CCC(C)=O | -0.246 |

same assay, conditions: Cyclohexanone, 25 C

| Structure (SMILES) | log K of transfer, water to solvent [log10 K] |
| --- | --- |
| CCC(C)=O | 0.574 |

same assay, conditions: Di-n-butyl ether, 25 C

| Structure (SMILES) | log K of transfer, water to solvent [log10 K] |
| --- | --- |
| CCC(C)=O | 0.00999 |

same assay, conditions: Dichloromethane, 25 C

| Structure (SMILES) | log K of transfer, water to solvent [log10 K] |
| --- | --- |
| CCC(C)=O | 1.14 |

same assay, conditions: Diethyl Ether, 25 C

| Structure (SMILES) | log K of transfer, water to solvent [log10 K] |
| --- | --- |
| CCC(C)=O | 0.31 |

same assay, conditions: Ethanol, 25 C

| Structure (SMILES) | log K of transfer, water to solvent [log10 K] |
| --- | --- |
| CCC(C)=O | 0.44 |

same assay, conditions: Hexadecane, 25 C

| Structure (SMILES) | log K of transfer, water to solvent [log10 K] |
| --- | --- |
| CCC(C)=O | -0.433 |

same assay, conditions: Hexan-1-ol, 25 C

| Structure (SMILES) | log K of transfer, water to solvent [log10 K] |
| --- | --- |
| CCC(C)=O | 0.122 |

same assay, conditions: Hexane, 25 C

| Structure (SMILES) | log K of transfer, water to solvent [log10 K] |
| --- | --- |
| CCC(C)=O | -0.23 |

same assay, conditions: Methanol, 25 C

| Structure (SMILES) | log K of transfer, water to solvent [log10 K] |
| --- | --- |
| CCC(C)=O | 0.62 |

same assay, conditions: Octan-1-ol(dry), 25 C

| Structure (SMILES) | log K of transfer, water to solvent [log10 K] |
| --- | --- |
| CCC(C)=O | 0.05 |

same assay, conditions: Pentan-1-ol, 25 C

| Structure (SMILES) | log K of transfer, water to solvent [log10 K] |
| --- | --- |
| CCC(C)=O | 0.13 |

same assay, conditions: Perfluoroalkane, 25 C

| Structure (SMILES) | log K of transfer, water to solvent [log10 K] |
| --- | --- |
| CCC(C)=O | -0.957 |

same assay, conditions: Propan-1-ol, 25 C

| Structure (SMILES) | log K of transfer, water to solvent [log10 K] |
| --- | --- |
| CCC(C)=O | 0.35 |

same assay, conditions: Propan-2-ol, 25 C

| Structure (SMILES) | log K of transfer, water to solvent [log10 K] |
| --- | --- |
| CCC(C)=O | 0.27 |

same assay, conditions: Tetrahydrofuran, 25 C

| Structure (SMILES) | log K of transfer, water to solvent [log10 K] |
| --- | --- |
| CCC(C)=O | 0.61 |

same assay, conditions: Toluene, 25 C

| Structure (SMILES) | log K of transfer, water to solvent [log10 K] |
| --- | --- |
| CCC(C)=O | 0.41 |

assay: log P octanol/water from commercial databases, averaged (the ESI); settings: Octanol (wet), 25 C

| Structure (SMILES) | log K of transfer, water to solvent [log10 K] |
| --- | --- |
| CCC(C)=O | 0.29 |
